PMC6387968, “An in vitro ADME and in vivo Pharmacokinetic Study of Novel TB-Active Decoquinate Derivatives” (Frontiers in Pharmacology, 2019)

How the values were obtained:
physchem = assay type: physicochemical; details: 22 °C, pH 7.4, aqueous buffer, kinetic from dmso stock
Procedure: Stock solutions of each compound prepared in DMSO (10 mM) were spiked in duplicate into phosphate buffer at pH 7.4 (final concentration = 200 μM). Calibration samples were prepared by spiking individual compounds in DMSO at 11, 100, and 220 μM. These were used to generate a calibration curve to determine compound concentrations in the test samples. The samples were agitated for 2 h using a plate shaker (500 rpm, 22°C). Approximately 150 μL of the resulting supernatant was transferred to a 96-well analysis plate and the calibration and test samples were analyzed via HPLC with a diode array detector (Agilent 1200 Rapid Resolution HPLC, Agilent Technologies, Santa Clara, CA, United States) comprising a reverse-phase Gemini-C18 analytical column (5 μm, 50 mm × 2 mm; Phenomenex, Torrance, CA, United States). Mobile phases comprised 0.1% FA in water (A) and 0.1% FA in ACN (B). The run lasted 3 min and a gradient elution method was used (Table 1).

in vitro [1] = assay type: in vitro ADME
Procedure: Compound solutions prepared in DMSO were diluted in phosphate buffer (final concentration = 1 μg/mL), and were spiked into human plasma and microsomal fractions (total volume = 1 mL). Aliquots were then transferred in duplicate to: (i) a final concentration plate that was immediately quenched with 23.6 ng/mL internal standard (IS, carbamazepine) in ACN, (ii) a degradation control, which was placed in a water bath at 37°C for 4 h, and (iii) ultracentrifuge tubes, which were centrifuged for 4 h at 37°C and 30 000 × g. All reactions were stopped by the addition of ACN containing 23.6 ng/mL carbamazepine. The samples were subjected to liquid chromatography-tandem mass spectrometry (LC-MS/MS) analysis on an AB Sciex 4000 Q Trap hybrid triple quadrupole linear ion-trap MS (AB Sciex, Framingham, MA, United States) coupled to an Agilent 1200 HPLC (Agilent) with a reverse-phase Gemini-C18 analytical column (5 μm, 50 mm × 2 mm; Phenomenex) at 35°C. Mobile phases comprised 0.1% FA in water, and 0.1% FA in ACN. The flow rate was 600 μL/min with a run time of 6 min. A gradient elution was employed (Table 2).

in vitro [2] = assay type: in vitro ADME; details: microsomes
Procedure: RMB041, -043, and -073 ([…]) prepared in DMSO were incubated separately with 530 μL mouse and human microsomes (0.4 mg/mL) at 37°C with the cofactor NADPH (1 mM). Compounds were assessed at 0 and 60 min. The reaction was stopped by the addition of ice-cold ACN containing IS (carbamazepine, 23.6 ng/mL). The samples were analyzed via LC-MS/MS using the instrumentation and conditions described above. The in vitro half-life, intrinsic clearance rate, and hepatic extraction ratio were predicted using results from this assay in the following equations ([Obach, 1999]). Metabolic stability was assessed as the compound’s depletion from a starting concentration of […] over 1 h in mouse and human microsomal fractions. The in vitro half-life can be predicted from this assay. The linear regression from a graph relating natural logarithmic percentage of the compound remaining versus the incubation time was used to calculate the half-life, CLint, and EH.

[3] = for Autosampler stability (48 h), Low / Stability, murine whole-blood (-80 °C freeze-thaw), Low / Stability, murine whole-blood (ice, 2 h), Low: 10 ng/mL; for Autosampler stability (48 h), High / IV formulation stability, High / Oral formulation stability, High / Stability, murine whole-blood (-80 °C freeze-thaw), High / Stability, murine whole-blood (ice, 2 h), High: 4000 ng/mL; for IV formulation stability, High / Oral formulation stability, High / Stability, murine whole-blood (ice, 2 h), Low / Stability, murine whole-blood (ice, 2 h), High: 2 h; for Stability, murine whole-blood (-80 °C freeze-thaw), Low / Stability, murine whole-blood (-80 °C freeze-thaw), High / Stability, murine whole-blood (ice, 2 h), Low / Stability, murine whole-blood (ice, 2 h), High: mouse
Procedure: The LC-MS/MS method used was partially validated by assessing recovery from mouse whole-blood, bench-top stability (3 h), auto-sampler stability (48 h), formulation stability (oral and IV, 2 h), freeze-thaw stability (3 cycles), and matrix effects (details in Supplementary Material). Partial method validation, comprising several tests to determine whether the compounds were stable in each possible experimental situation involved with sample collection, storage, and processing, was performed. These tests included: (i) compound stability in mouse whole-blood (on ice and at -80°C), (ii) compound stability in the autosampler, (iii) compound stability in oral and intravenous formulations, (iv) matrix effects (ME), and (v) compound recovery. In this study, stability is reported as a percentage, reflecting the stability of the compound in relation to a fresh sample prepared just before analysis.

[4] = system: Chinese hamster ovarian (CHO) cell-lines; details: cited from earlier work
[5] = human, plasma, Plasma protein (fraction unbound)
[6] = human, plasma, percentage plasma protein binding

| SMILES | solubility kinetic at 2 h (physchem) [µM] | fraction unbound at 4 h, 1 μg/mL (in vitro [1]; human, microsomes) | fraction unbound at 4 h, 1 μg/mL (in vitro [1]; [5]) | fraction unbound at 4 h, 1 μg/mL (in vitro [1]; [6]) | fraction unbound at 4 h, 1 μg/mL (in vitro [1]; microsomes) | half-life at 0.1 M (in vitro [2]) [h] | microsomal CLint at 0.1 M (in vitro [2]) [µL/min/mg] | Autosampler stability (48 h), Low [3] [%] | Autosampler stability (48 h), High [3] [%] | IV formulation stability, High [3] [%] | Oral formulation stability, High [3] [%] | Stability, murine whole-blood (-80 °C freeze-thaw), Low [3] [%] | Stability, murine whole-blood (-80 °C freeze-thaw), High [3] [%] | Stability, murine whole-blood (ice, 2 h), Low [3] [%] | Stability, murine whole-blood (ice, 2 h), High [3] [%] | IC50 [4] [µM] |
| --- | --- | --- | --- | --- | --- | --- | --- | --- | --- | --- | --- | --- | --- | --- | --- | --- |
| CCCCCCCCCCOc1cc2c(=O)c(C(=O)NCCNCCO)cn(CC)c2cc1OCC [RMB043] | > 150 | 0.053 | 0.23 | 0.221 | 0.06 | < 1.67 | < 110 | 99.8 | 99.1 | 93.1 | 89.0 | 91.3 | 92.5 | 102.4 | 109.0 | 80 |
| CCCCCCCCCCOc1cc2c(=O)c(C(=O)NCCOCCO)cn(CCO)c2cc1OCC [RMB073] | > 150 | 0.114 | 0.16 | 0.156 | 0.11 | > 2.5 | < 20 | 105.3 | 102.0 | 98.8 | 89.3 | 89.5 | 97.3 | 87.6 | 92.3 | 33.9 |
| CCCCCCCCCCOc1cc2c(=O)c(C(=O)NCCOCCO)cn(CC)c2cc1OCC [RMB041] | > 150 | 0.053 | 0.1 | 0.104 | 0.06 | > 2.5 | < 20 | 92.1 | 94.1 | 90.3 | 98.0 | 99.2 | 98.7 | 89.2 | 91.2 | 20 |
